# Several values for one entry are separate records, joined by “and”; a condition that tells them apart may be missing. Identical values can stand only once.
# System: NCI-H1876 complex spheroid growth, % test/control
# Assay: Anticancer human tumor NCI-H1876 cell line growth inhibition [Asc];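 further: compound exposure lasted 7 days starting three days after seeding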;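 on viability, T/C: 100% = DMSO vehicle control wells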
# Settings: for viability, T/C: stronger effect = lower value
# Procedure, shortened: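 Complex spheroids combining tumor cells with HUVEC endothelial cells and human MSCs, at 37 degrees C, 5% CO2; agents tested alone or combined, half-log dilutions from at or near clinical Cmax, or 10 microM if Cmax unknown.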
compound,measurement,setting,value
COc1c(OCCCN2CCOCC2)ccc2c3n(c(=NC(=O)c4cnc(N)nc4)nc12)CCN3,"viability, T/C",compound 0.00316 µM,106% and 91.5% and 100%
same,"viability, T/C",compound 0.01 µM,89.7% and 97.9% and 107%
same,"viability, T/C",compound 0.0316 µM,85% and 84.5% and 99.3%
same,"viability, T/C",compound 0.1 µM,79.1% and 75.3% and 72%
same,"viability, T/C",compound 0.316 µM,64.5% and 59.5% and 60.7%
same,"viability, T/C",compound 1 µM,48.8% and 45.6% and 44.9%
same,IC50,curve of compound,724 nM and 679 nM and 992 nM
NC1CCC(NC2CC2c2ccccc2)CC1 (stereo unspecified),"viability, T/C",compound 0.000316 µM,121% and 119% (2×)
same,"viability, T/C",compound 0.001 µM,108% and 95.7% and 118%
same,"viability, T/C",compound 0.00316 µM,118% and 112% and 134%
same,"viability, T/C",compound 0.01 µM,116% and 106% and 120%
same,"viability, T/C",compound 0.0316 µM,116% and 112% and 131%
same,"viability, T/C",compound 0.1 µM,107% and 112% and 136%
same,IC50,curve of compound,> 100 nM
Cn1ncnc1[C@H]1c2n[nH]c(=O)c3cc(F)cc(c23)N[C@@H]1c1ccc(F)cc1 + CNC(C)C(=O)NC1CN(S(=O)(=O)c2cccc(S(=O)(=O)N3CCC4CCC(C(=O)NC(c5ccccc5)c5ccccc5)N4C(=O)C(NC(=O)C(C)NC)C3)c2)CCC2CCC(C(=O)NC(c3ccccc3)c3ccccc3)N2C1=O,IC50,"curve of first compound, second compound 0.00316 µM",> 100 nM
same,IC50,"curve of first compound, second compound 0.01 µM",> 100 nM
same,IC50,"curve of first compound, second compound 0.0316 µM",> 100 nM
same,IC50,"curve of first compound, second compound 0.1 µM",> 100 nM
same,IC50,"curve of first compound, second compound 0.316 µM",> 100 nM
same,IC50,"curve of first compound, second compound 1 µM",> 100 nM
same,"viability, T/C","second compound 0.00316 µM, first compound 0.000316 µM",72.3%
same,"viability, T/C","second compound 0.00316 µM, first compound 0.001 µM",63.5%
same,"viability, T/C","second compound 0.00316 µM, first compound 0.00316 µM",68.2%
same,"viability, T/C","second compound 0.00316 µM, first compound 0.01 µM",55.5%
same,"viability, T/C","second compound 0.00316 µM, first compound 0.0316 µM",51.2%
same,"viability, T/C","second compound 0.00316 µM, first compound 0.1 µM",54.3%
same,"viability, T/C","second compound 0.01 µM, first compound 0.000316 µM",92.8%
same,"viability, T/C","second compound 0.01 µM, first compound 0.001 µM",103%
same,"viability, T/C","second compound 0.01 µM, first compound 0.00316 µM",87.6%
same,"viability, T/C","second compound 0.01 µM, first compound 0.01 µM",95.2%
same,"viability, T/C","second compound 0.01 µM, first compound 0.0316 µM",96.5%
same,"viability, T/C","second compound 0.01 µM, first compound 0.1 µM",95.8%
same,"viability, T/C","second compound 0.0316 µM, first compound 0.000316 µM",94.8%
same,"viability, T/C","second compound 0.0316 µM, first compound 0.001 µM",99%
same,"viability, T/C","second compound 0.0316 µM, first compound 0.00316 µM",104%
same,"viability, T/C","second compound 0.0316 µM, first compound 0.01 µM",112%
same,"viability, T/C","second compound 0.0316 µM, first compound 0.0316 µM",109%
same,"viability, T/C","second compound 0.0316 µM, first compound 0.1 µM",103%
same,"viability, T/C","second compound 0.1 µM, first compound 0.000316 µM",105%
same,"viability, T/C","second compound 0.1 µM, first compound 0.001 µM",102%
same,"viability, T/C","second compound 0.1 µM, first compound 0.00316 µM",97.3%
same,"viability, T/C","second compound 0.1 µM, first compound 0.01 µM",91.5%
same,"viability, T/C","second compound 0.1 µM, first compound 0.0316 µM",97.4%
same,"viability, T/C","second compound 0.1 µM, first compound 0.1 µM",102%
same,"viability, T/C","second compound 0.316 µM, first compound 0.000316 µM",97.7%
same,"viability, T/C","second compound 0.316 µM, first compound 0.001 µM",96.7%
same,"viability, T/C","second compound 0.316 µM, first compound 0.00316 µM",93.4%
same,"viability, T/C","second compound 0.316 µM, first compound 0.01 µM",110%
same,"viability, T/C","second compound 0.316 µM, first compound 0.0316 µM",115%
same,"viability, T/C","second compound 0.316 µM, first compound 0.1 µM",97.3%
same,"viability, T/C","second compound 1 µM, first compound 0.000316 µM",114%
same,"viability, T/C","second compound 1 µM, first compound 0.001 µM",99.1%
same,"viability, T/C","second compound 1 µM, first compound 0.00316 µM",90.1%
same,"viability, T/C","second compound 1 µM, first compound 0.01 µM",116%
same,"viability, T/C","second compound 1 µM, first compound 0.0316 µM",103%
same,"viability, T/C","second compound 1 µM, first compound 0.1 µM",104%
